Read-outs that look alike come from different tables or passages of the source.
Experiments:
HUVEC = HUVEC proliferation, [3H]-thymidine incorporation assay; assay type: cell-based, human
Procedure: HCC1954 cells were grown in RPMI1640 containing 10% FBS. HUVEC were grown using the EGM-2 bullet kit (Cambrex) as per manufacturer's instructions. The cells were maintained in a humidified incubator adjusted to 5% CO2. For drug screening, 10 mM stock solutions of Johns Hopkins Drug Library were arrayed in 96-well plates and screened at a final concentration of 10 μM. The cell growth was determined using a [^3H]-thymidine incorporation assay. Cells (typically 5,000 cells/well) were seeded in 96-well plates containing 0.2 ml of growth media and allowed to adhere for 24 h. The cells were then treated with drugs for 24 h. Cells were pulsed with 1 μCi [^3H]-thymidine (MP Biomedicals, 6.7 Ci mmol^−1) for 8 h and harvested, upon trypsin treatment, onto glass fiber filters (Wallac, Turku, Finland), from which ^3H counts were determined using a Perkin Elmer MicroBeta plate reader.

[1] = system: acetylation of p53 (K382), α-tubulin and histone-H3; experiment: Acetylation status of sirtuin substrates in HUVEC (Western blot); assay type: cell-based, human; details: HUVEC, 6 h or 20 h
Procedure: Cells were lysed by adding 1 volume of 2× Laemmli buffer and were then boiled for 5 min. The samples were separated by SDS-PAGE and transferred to nitrocellulose membrane (Bio-Rad). Proteins were detected using primary antibodies for p53 (Santa Cruz), met-14-3-3γ (Novus), p21 (Santa Cruz), Rb (Santa Cruz), MetAP2 (Hu, X. et al (2006) Proc. Natl. Acad. Sci. U.S.A. 103, 18148-18153), SirT1 (Santa Cruz), acetyl-p53-K382 (Abeam), acetyl-tubulin (Sigma), histone-H3 (Santa Cruz), acetyl-H3 (Santa Cruz) and α-tubulin (TU-02, Santa Cruz) followed by the incubation with horseradish peroxidase (HRP)-conjugated anti-mouse or anti-rabbit antibodies (Santa Cruz) and enhanced chemiluminescence (ECL, Amersham).

hMetAP2 = target: T1, hMetAP2 (Homo sapiens, UniProt P50579); experiment: MetAP enzymatic assay, hMetAP2; assay type: biochemical
T1 construct: made in house

hMetAP1 = target: T2, hMetAP1 (Homo sapiens, UniProt P53582); experiment: MetAP enzymatic assay, hMetAP1; assay type: biochemical
T2 construct: made in house

HFF = HFF proliferation (selectivity); assay type: cell-based
[2] = Table 3, in the presence of Co^2+, read-out: hMetAP2 Co^2+ IC50
[3] = Table 3, in the presence of Mn^2+, read-out: hMetAP2 Mn^2+ IC50
[4] = Table 3, in the presence of Co^2+, read-out: hMetAP1 Co^2+ IC50
[5] = Table 3, in the presence of Mn^2+, read-out: hMetAP1 Mn^2+ IC50
[6] = Table 3, read-out: Selectivity HUVEC IC50

T1 sequence (P50579 whole entry): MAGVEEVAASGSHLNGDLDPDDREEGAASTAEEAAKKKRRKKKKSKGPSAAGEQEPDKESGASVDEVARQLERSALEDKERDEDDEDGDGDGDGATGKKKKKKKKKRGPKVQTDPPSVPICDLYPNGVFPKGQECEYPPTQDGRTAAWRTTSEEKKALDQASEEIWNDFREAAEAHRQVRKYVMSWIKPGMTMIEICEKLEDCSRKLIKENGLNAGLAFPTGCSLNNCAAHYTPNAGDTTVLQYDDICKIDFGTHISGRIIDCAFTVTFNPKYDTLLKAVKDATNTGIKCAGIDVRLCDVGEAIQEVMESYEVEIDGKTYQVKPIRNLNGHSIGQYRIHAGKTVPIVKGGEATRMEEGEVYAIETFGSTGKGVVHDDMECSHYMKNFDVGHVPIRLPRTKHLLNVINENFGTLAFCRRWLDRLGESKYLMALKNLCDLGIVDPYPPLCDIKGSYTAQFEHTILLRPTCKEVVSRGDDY

| IC50 (hMetAP2; [2]) | IC50 (hMetAP2; [3]) | IC50 (hMetAP1; [4]) | IC50 (hMetAP1; [5]) | SMILES | IC50 (HFF; Table 3) | other results |
| --- | --- | --- | --- | --- | --- | --- |
| > 50 µM | 1.6 µM | > 50 µM | > 50 µM | O=C(Nc1ccccc1)Oc1c(Cl)cc(Cl)c2cccnc12 [Entry 4d, 5,7-Dichloro-8-quinolyl-N-phenylcarbamate] | 15.3 µM | – |
| 1.9 µM | 0.03 µM | > 50 µM | 11.9 µM | O=C(Nc1ccccc1)Oc1ccc(Cl)c2cccnc12 [Entry 4e, 5-Chloro-8-quinolyl-N-phenylcarbamate] | 8.8 µM | IC50 (HUVEC; [6]): 2.1 µM |
| 2.2 µM | 0.07 µM | > 50 µM | 12.6 µM | O=C(Nc1cc(Cl)cc(Cl)c1)Oc1ccc(Cl)c2cccnc12 [Entry 4c, 5-Chloro-8-quinolyl-N-(3,5-dichlorophenyl)-carbamate] | 8 µM | IC50 (HUVEC; [6]): 1.2 µM |
| > 50 µM | 3.1 µM | > 50 µM | > 50 µM | O=C(Nc1ccc(F)cc1)Oc1c(Cl)cc(Cl)c2cccnc12 [Entry 4f, 5,7-Dichloro-8-quinolyl-N-(4-fluorophenyl)-carbamate] | 37 µM | – |
| 45.7 µM | 1.8 µM | > 50 µM | > 50 µM | O=C(Nc1cc(F)cc(F)c1)Oc1ccc(Cl)c2cccnc12 [Entry 4g, 5-Chloro-8-quinolyl-N-(3,5-difluorophenyl)-carbamate] | 16.1 µM | – |

Further lines, the molecule ahead of its results:

| SMILES | IC50 (hMetAP2; [2]) | IC50 (hMetAP2; [3]) | IC50 (hMetAP1; [4]) | IC50 (hMetAP1; [5]) | IC50 (HFF; Table 3) | other results |
| --- | --- | --- | --- | --- | --- | --- |
| Oc1c(C(c2ccccc2)N2CCOCC2)cc(Cl)c2cccnc12 (stereo not shown) [Entry 2f, 5-Chloro-7-(1-phenyl-1-(N-morpholino)-methyl)-8-hydroxy-quinoline] | – | – | – | – | – | melting point: 89 °C |
| NC(=O)COc1ccc([N+](=O)[O-])c2cccnc12 [Entry 5e, 1-(5-Nitro-quinolin-8-yloxy)-acetamide] | – | – | – | – | – | IC50 (HUVEC; Table 4, read-out: HUVEC IC50): 6.3 µM |
| CC(NC(=O)c1ccccc1/N=C/c1c(O)ccc2ccccc12)c1ccccc1 (stereo not shown) [sirtinol] | – | – | – | – | – | acetylation status of tubulin or histone-H3 [1]: induced hyper-acetylation |
| Oc1c(C(Nc2nccs2)c2ccco2)cc(Cl)c2cccnc12 (stereo not shown) [Entry 2g, 5-Chloro-7-(1-(2-furyl)-1-(2-thiazolylamino)-methyl)-8-hydroxy-quinoline] | – | – | – | – | – | IC50 (hMetAP2; Table 2, in the presence of Co^2+, read-out: hMetAP2 Co^2+ IC50): > 50 µM; IC50 (hMetAP2; Table 2, in the presence of Mn^2+, read-out: hMetAP2 Mn^2+ IC50): 2.8 µM; melting point: 126 °C; IC50 (hMetAP1; Table 2, in the presence of Co^2+, read-out: hMetAP1 Co^2+ IC50): > 50 µM; IC50 (hMetAP1; Table 2, in the presence of Mn^2+, read-out: hMetAP1 Mn^2+ IC50): > 50 µM; IC50 (HFF; Homo sapiens, HFF, Table 2): 13.5 µM; IC50 (HUVEC; Homo sapiens, HUVEC, Table 2, read-out: Selectivity HUVEC IC50): 2.5 µM |
| Cc1ccc2c([N+](=O)[O-])cc([N+](=O)[O-])c(O)c2n1 [Entry 5b, 2-Methyl-5,7-dinitro-8-hydroxy-quinoline] | – | – | – | – | – | IC50 (HUVEC; Homo sapiens, HUVEC, Table 4, read-out: HUVEC IC50): 17.3 µM |
| C=CCOc1ccc(Cl)c2cccnc12 [Entry 3a, 8-Allyloxy-5-chloroquinoline] | – | – | – | – | – | IC50 (hMetAP2; read-out: hMetAP2 Co^2+ IC50, Table 2, in the presence of Co^2+): > 50 µM; IC50 (hMetAP1; read-out: hMetAP1 Co^2+ IC50, Table 2, in the presence of Co^2+): > 50 µM |
